Measurements from patent US10294202B2, “Pyrrolidinones as herbicides” (FMC Corporation, priority 2013, dated 2019).

Key:
Assay in all cases: Test D pre-/postemergence herbicide test
galium = type: in vivo, Galium aparine; conditions: for Plant response rating: Galium, scale 0 to 100; for Plant response rating, Galium: scale 0 to 100 (0 no effect, 100 complete control)
Text: (§1) Seeds of plant species selected from bluegrass (annual bluegrass, Poa annua), blackgrass (Alopecurus myosuroides), canarygrass (littleseed canarygrass, Phalaris minor), chickweed (common chickweed, Stellaria media), galium (catchweed bedstraw, Galium aparine), bromegrass, downy (downy bromegrass, Bromus tectorum), field poppy (Papaver rhoeas), field violet (Viola arvensis), foxtail, green (green foxtail, Setaria viridis), deadnettle (henbit deadnettle, Lamium amplexicaule), ryegrass, Italian (Italian ryegrass, Lolium multiflorum), kochia (Kochia scoparia), lambsquarters (Chenopodium album), oilseed rape (Brassica napus), pigweed (Amaranthus retroflexus), chamomile (scentless chamomile, Matricaria inodora), Russian thistle (Salsola kali), speedwell (bird's-eye speedwell, Veronica persica), barley, spring (spring barley, Hordeum vulgare), wheat, spring (spring wheat, Triticum aestivum), buckwheat, wild (wild buckwheat, Polygonum convolvulus), mustard, wild (wild mustard, Sinapis arvensis), oat, wild (wild oat, Avena fatua), radish, wild (wild radish, Raphanus raphanistrum), […]), barley, winter (winter barley, Hordeum vulgare), and wheat, winter (winter wheat, Triticum aestivum) were planted into a silt loam soil and treated preemergence with test chemicals formulated in a non-phytotoxic solvent mixture which included a surfactant. At the same time, these species were planted in pots containing Redi-Earth® planting medium (Scotts Company, 14111 Scottslawn Road, Marysville, Ohio 43041) comprising spaghnum peat moss, vermiculite, wetting agent and starter nutrients and treated with postemergence applications of the test chemicals formulated in the same manner. Plants ranged in height from 2 to 18 cm (1- to 4-leaf stage). Treated plants and controls were maintained in a controlled growth environment for 7 to 21 days after which time all species were compared to controls and visually evaluated. Plant response ratings, summarized in Table D, are based on a scale of 0 to 100 where 0 is no effect and 100 is complete control. A dash (-) response means no test result.

buckwheat, wild = type: in vivo, Polygonum convolvulus; conditions: for Plant response rating: Buckwheat, Wild, scale 0 to 100; for Plant response rating, Buckwheat, Wild: scale 0 to 100 (0 no effect, 100 complete control)
Text: as §1

oat, wild = type: in vivo, Avena fatua; conditions: for Plant response rating: Postemergence, Oat, Wild, scale 0 to 100; for Plant response rating, Oat, Wild: Preemergence, scale 0 to 100 (0 no effect, 100 complete control)
Text: as §1

windgrass = type: in vivo, Apera spica-venti; conditions: for Plant response rating: Postemergence, Windgrass, scale 0 to 100; for Plant response rating, Windgrass: Preemergence, scale 0 to 100 (0 no effect, 100 complete control)
Text: as §1

## O=C1NCC(c2ccc(F)c(F)c2)C1C(=O)Nc1ccccc1C(F)(F)F (racemic) [Compound 6]
galium; Postemergence, 16 g ai/ha
  Plant response rating: 0
galium; Postemergence, 31 g ai/ha
  Plant response rating: 0
galium; Postemergence, 62 g ai/ha
  Plant response rating: 0
galium; Postemergence, 125 g ai/ha
  Plant response rating: 0
galium; Postemergence, 250 g ai/ha
  Plant response rating: 0
galium; Preemergence, 62 g ai/ha
  Plant response rating, Galium: 50
galium; Preemergence, 16 g ai/ha
  Plant response rating, Galium: 0
galium; Preemergence, 31 g ai/ha
  Plant response rating, Galium: 0
galium; Preemergence, 125 g ai/ha
  Plant response rating: 100
galium; Preemergence, 250 g ai/ha
  Plant response rating: 100
buckwheat, wild; Postemergence, 16 g ai/ha
  Plant response rating: 0
buckwheat, wild; Postemergence, 31 g ai/ha
  Plant response rating: 0
buckwheat, wild; Postemergence, 62 g ai/ha
  Plant response rating: 0
buckwheat, wild; Postemergence, 125 g ai/ha
  Plant response rating: 0
buckwheat, wild; Postemergence, 250 g ai/ha
  Plant response rating: 10
buckwheat, wild; Preemergence, 62 g ai/ha
  Plant response rating, Buckwheat, Wild: 0
buckwheat, wild; Preemergence, 16 g ai/ha
  Plant response rating, Buckwheat, Wild: 0
buckwheat, wild; Preemergence, 31 g ai/ha
  Plant response rating, Buckwheat, Wild: 0
buckwheat, wild; Preemergence, 125 g ai/ha
  Plant response rating: 0
buckwheat, wild; Preemergence, 250 g ai/ha
  Plant response rating: 0
oat, wild; 16 g ai/ha
  Plant response rating: 0
  Plant response rating, Oat, Wild: 0
oat, wild; 31 g ai/ha
  Plant response rating: 0
  Plant response rating, Oat, Wild: 0
oat, wild; 62 g ai/ha
  Plant response rating: 0
  Plant response rating, Oat, Wild: 0
oat, wild; 125 g ai/ha
  Plant response rating: 0
  Plant response rating, Oat, Wild: 0
oat, wild; 250 g ai/ha
  Plant response rating: 5
  Plant response rating, Oat, Wild: 0
windgrass; 16 g ai/ha
  Plant response rating: 0
  Plant response rating, Windgrass: 0
windgrass; 31 g ai/ha
  Plant response rating: 0
  Plant response rating, Windgrass: 0
windgrass; 62 g ai/ha
  Plant response rating: 0
  Plant response rating, Windgrass: 0
windgrass; 125 g ai/ha
  Plant response rating: 0
  Plant response rating, Windgrass: 100
windgrass; 250 g ai/ha
  Plant response rating: 0
  Plant response rating, Windgrass: 100

## O=C1NCC(c2ccc(F)c(C(F)(F)F)c2)C1C(=O)Nc1cccc(F)c1F (racemic) [Compound 77]
galium; Preemergence, 62 g ai/ha
  Plant response rating, Galium: 55
galium; Preemergence, 31 g ai/ha
  Plant response rating, Galium: 35
galium; Preemergence, 125 g ai/ha
  Plant response rating: 85
galium; Preemergence, 250 g ai/ha
  Plant response rating: 85
buckwheat, wild; Preemergence, 62 g ai/ha
  Plant response rating, Buckwheat, Wild: 75
buckwheat, wild; Preemergence, 31 g ai/ha
  Plant response rating, Buckwheat, Wild: 0
buckwheat, wild; Preemergence, 125 g ai/ha
  Plant response rating: 55
buckwheat, wild; Preemergence, 250 g ai/ha
  Plant response rating: 55
oat, wild; 62 g ai/ha
  Plant response rating, Oat, Wild: 15
oat, wild; 125 g ai/ha
  Plant response rating, Oat, Wild: 20
oat, wild; 31 g ai/ha
  Plant response rating, Oat, Wild: 10
oat, wild; 250 g ai/ha
  Plant response rating, Oat, Wild: 45
windgrass; 62 g ai/ha
  Plant response rating, Windgrass: 85
windgrass; 125 g ai/ha
  Plant response rating, Windgrass: 90
windgrass; 31 g ai/ha
  Plant response rating, Windgrass: 45
windgrass; 250 g ai/ha
  Plant response rating, Windgrass: 95

## O=C1NCC(c2ccc(C(F)(F)F)cc2)C1C(=O)Nc1ccccc1F (stereo not drawn) [Compound 231]
galium; Postemergence, 31 g ai/ha
  Plant response rating: 40
galium; Postemergence, 62 g ai/ha
  Plant response rating: 45
galium; Postemergence, 125 g ai/ha
  Plant response rating: 55
galium; Postemergence, 250 g ai/ha
  Plant response rating: 55
galium; Preemergence, 62 g ai/ha
  Plant response rating, Galium: 40
galium; Preemergence, 125 g ai/ha
  Plant response rating, Galium: 35
galium; Preemergence, 31 g ai/ha
  Plant response rating, Galium: 20
galium; Preemergence, 250 g ai/ha
  Plant response rating: 40
buckwheat, wild; Postemergence, 31 g ai/ha
  Plant response rating: 0
buckwheat, wild; Postemergence, 62 g ai/ha
  Plant response rating: 0
buckwheat, wild; Postemergence, 125 g ai/ha
  Plant response rating: 0
buckwheat, wild; Postemergence, 250 g ai/ha
  Plant response rating: 0
buckwheat, wild; Preemergence, 62 g ai/ha
  Plant response rating, Buckwheat, Wild: 0
buckwheat, wild; Preemergence, 125 g ai/ha
  Plant response rating, Buckwheat, Wild: 0
buckwheat, wild; Preemergence, 31 g ai/ha
  Plant response rating, Buckwheat, Wild: 0
buckwheat, wild; Preemergence, 250 g ai/ha
  Plant response rating: 10
oat, wild; 31 g ai/ha
  Plant response rating: 5
  Plant response rating, Oat, Wild: 20
oat, wild; 62 g ai/ha
  Plant response rating: 10
  Plant response rating, Oat, Wild: 20
oat, wild; 125 g ai/ha
  Plant response rating: 10
  Plant response rating, Oat, Wild: 25
oat, wild; 250 g ai/ha
  Plant response rating: 10
  Plant response rating, Oat, Wild: 30
windgrass; 31 g ai/ha
  Plant response rating: 0
  Plant response rating, Windgrass: 55
windgrass; 62 g ai/ha
  Plant response rating: 5
  Plant response rating, Windgrass: 70
windgrass; 125 g ai/ha
  Plant response rating: 0
  Plant response rating, Windgrass: 75
windgrass; 250 g ai/ha
  Plant response rating: 15
  Plant response rating, Windgrass: 85

## O=C1NCC(c2cc(F)c(F)cc2F)C1C(=O)Nc1cccc(F)c1F (stereo not drawn) [Compound 50]
galium; Postemergence, 16 g ai/ha
  Plant response rating: 0
galium; Postemergence, 31 g ai/ha
  Plant response rating: 0
galium; Postemergence, 62 g ai/ha
  Plant response rating: 0
galium; Postemergence, 125 g ai/ha
  Plant response rating: 0
galium; Preemergence, 62 g ai/ha
  Plant response rating, Galium: 0
galium; Preemergence, 16 g ai/ha
  Plant response rating, Galium: 0
galium; Preemergence, 31 g ai/ha
  Plant response rating, Galium: 0
galium; Preemergence, 125 g ai/ha
  Plant response rating: 0
buckwheat, wild; Postemergence, 16 g ai/ha
  Plant response rating: 10
buckwheat, wild; Postemergence, 31 g ai/ha
  Plant response rating: 10
buckwheat, wild; Postemergence, 62 g ai/ha
  Plant response rating: 10
buckwheat, wild; Postemergence, 125 g ai/ha
  Plant response rating: 10
buckwheat, wild; Preemergence, 62 g ai/ha
  Plant response rating, Buckwheat, Wild: 0
buckwheat, wild; Preemergence, 16 g ai/ha
  Plant response rating, Buckwheat, Wild: 0
buckwheat, wild; Preemergence, 31 g ai/ha
  Plant response rating, Buckwheat, Wild: 0
oat, wild; 16 g ai/ha
  Plant response rating: 0
  Plant response rating, Oat, Wild: 0
oat, wild; 31 g ai/ha
  Plant response rating: 0
  Plant response rating, Oat, Wild: 0
oat, wild; 62 g ai/ha
  Plant response rating: 0
  Plant response rating, Oat, Wild: 0
oat, wild; 125 g ai/ha
  Plant response rating: 0
  Plant response rating, Oat, Wild: 0
windgrass; 16 g ai/ha
  Plant response rating: 0
  Plant response rating, Windgrass: 0
windgrass; 31 g ai/ha
  Plant response rating: 0
  Plant response rating, Windgrass: 0
windgrass; 62 g ai/ha
  Plant response rating: 0
  Plant response rating, Windgrass: 5
windgrass; 125 g ai/ha
  Plant response rating: 0
  Plant response rating, Windgrass: 0

## O=C1NCC(c2ccc(Cl)c(F)c2)C1C(=O)Nc1cccc(F)c1F (stereo not drawn) [Compound 52]
galium; Postemergence, 16 g ai/ha
  Plant response rating: 0
galium; Postemergence, 31 g ai/ha
  Plant response rating: 0
galium; Postemergence, 62 g ai/ha
  Plant response rating: 0
galium; Postemergence, 125 g ai/ha
  Plant response rating: 25
galium; Postemergence, 250 g ai/ha
  Plant response rating: 35
galium; Preemergence, 62 g ai/ha
  Plant response rating, Galium: 0
galium; Preemergence, 16 g ai/ha
  Plant response rating, Galium: 0
galium; Preemergence, 31 g ai/ha
  Plant response rating, Galium: 0
galium; Preemergence, 125 g ai/ha
  Plant response rating: 0
galium; Preemergence, 250 g ai/ha
  Plant response rating: 20
buckwheat, wild; Postemergence, 16 g ai/ha
  Plant response rating: 0
buckwheat, wild; Postemergence, 31 g ai/ha
  Plant response rating: 0
buckwheat, wild; Postemergence, 62 g ai/ha
  Plant response rating: 0
buckwheat, wild; Postemergence, 125 g ai/ha
  Plant response rating: 0
buckwheat, wild; Postemergence, 250 g ai/ha
  Plant response rating: 0
buckwheat, wild; Preemergence, 62 g ai/ha
  Plant response rating, Buckwheat, Wild: 0
buckwheat, wild; Preemergence, 16 g ai/ha
  Plant response rating, Buckwheat, Wild: 0
buckwheat, wild; Preemergence, 31 g ai/ha
  Plant response rating, Buckwheat, Wild: 0
buckwheat, wild; Preemergence, 125 g ai/ha
  Plant response rating: 10
buckwheat, wild; Preemergence, 250 g ai/ha
  Plant response rating: 10
oat, wild; 16 g ai/ha
  Plant response rating: 0
  Plant response rating, Oat, Wild: 0
oat, wild; 31 g ai/ha
  Plant response rating: 0
  Plant response rating, Oat, Wild: 0
oat, wild; 62 g ai/ha
  Plant response rating: 0
  Plant response rating, Oat, Wild: 0
oat, wild; 125 g ai/ha
  Plant response rating: 0
  Plant response rating, Oat, Wild: 0
oat, wild; 250 g ai/ha
  Plant response rating: 0
  Plant response rating, Oat, Wild: 0
windgrass; 16 g ai/ha
  Plant response rating: 0
  Plant response rating, Windgrass: 0
windgrass; 31 g ai/ha
  Plant response rating: 0
  Plant response rating, Windgrass: 0
windgrass; 62 g ai/ha
  Plant response rating: 0
  Plant response rating, Windgrass: 0
windgrass; 125 g ai/ha
  Plant response rating: 0
  Plant response rating, Windgrass: 40
windgrass; 250 g ai/ha
  Plant response rating: 0
  Plant response rating, Windgrass: 60
